Test results taken from patent US20260085315A1, “POLYNUCLEOTIDE COMPOSITIONS AND METHODS FOR TREATMENT OF CANCER” (APTAH BIO, INC., priority 2023, published 2026).
Several values for one entry are separate records, joined by “and”; a condition that tells them apart may be missing. Equal entries are not always repeated. d = 2'-deoxy (DNA); m = 2'-O-methyl

Key:
MCF-7 cell line [1] = assay: MTT cell viability assay (Example 3); assay type: cell-based, Human; conditions: 48 hours, 2% FBS
Method: MTT assay was carried out to assess the cell viability of MCF-7 cell line after treatment with ASMO APT20TTMG, and, therefore, infer the ASMO1 cytotoxicity. The tetrazolium salt reduction (MTT) method evaluates cell viability by assessing mitochondrial integrity. Viable cells are able to reduce MTT reagent, which is yellow and water-soluble, into an insoluble purple formazan product. Formazan quantification could be measured by a spectrophotometer absorbance at 560 nm. The quantity of formazan is directly proportional to the number of viable cells in the culture.
For this assay, MCF-7 cells were plated in 96-well plates at a density of 1×10^4 cells/well and cultured for 24 hours for adhesion and, subsequently incubated with eight concentrations (0.0078-1 μM) of APT20TTMG (prepared in medium with 2% FBS) for the period of 48 hours. Then, cells were washed with 150 μL/well of PBS and incubated with 100 μL/well of MTT solution prepared in culture medium, at a concentration of 0.5 mg/mL for 3 hours in the incubator. […] Finally, the absorbance of the samples was measured in a plate reader spectrophotometer (Multiskan Spectrum, Thermo Scientific, Waltham, MA, USA), at a wavelength of 560 nm. The absorbance of each sample was used to determine the cell viability after each treatment condition.

MCF-7 cell line [2] = assay: Cell cycle assay (propidium iodide, flow cytometry); assay type: cell-based, Human; conditions: 0.25 and 0.5 μM; 48 hours; only statistically significant alteration
Method: Cell cycle assays were performed to understand how the ASMO APT20TTMG affects the cell cycle of MCF-7 cell line and its potential mechanisms of action. Initially, cells were plated in 12-well plates at a density of 5×10^4 cells/well and cultured for 24 hours for adhesion and then treated with three different concentrations of APT20TTMG (0.25, 0.5 and 1.0 μM) for 48 hours. After, cells were collected using a solution of trypsin/EDTA and washed with 2.0 mL of PBS buffer followed by centrifugation at 1500 rpm for 5 minutes. Then, the cells were fixed with ice-cold 70% ethanol and incubated overnight at 4° C. After that, cells were washed again with 2.0 mL of PBS and incubated with Propidium Iodide solution (50 μg/mL) and RNAse (200 μg/mL) for 1 hour at room temperature and protected from light. Finally, the cells were analyzed in a flow cytometer (BD FACSCanto II, BD Biosciences), through the acquisition of 10.000 gated events considering each sample.

[3] = system: neuroblastoma cell line SH-SY5Y; assay: Kinetics of internalization; assay type: cell-based, Human; conditions: all evaluated times
SH-SY5Y cell line [4] = assay: Distribution of cell cycle phases; assay type: cell-based, Human; conditions: any concentration evaluated
SH-SY5Y cell line [5] = assay: Apoptosis/necrosis phase distribution; assay type: cell-based, Human; conditions: 0.25 μM; 24 hours
[6] = system: neuroblastoma cell line (SK-N-SH); assay: Cell viability over time; assay type: cell-based; conditions: 0.5 μM; 24, 48, 96, 144 hours; indicating a cytostatic effect
Method: FIG. 26 illustrates cell viability results obtained after 24, 48, 96 and 144 hours of incubation with ASMO1 (0.5 μM) in neuroblastoma cell line (SK-N-SH).

U87-MG cell line = assay: Distribution of cell cycle phases; assay type: cell-based, Human; conditions: 0.25 μM, 48 hours
Method: The methodologies for this Example are the same as shown in Example 4.
Cells were plated and treated with 3 different concentrations (0.25, 0.5, and 1 μM) of APT20TTMG and cell cycle phases were evaluated after 48 hours of incubation. Cell proliferation is regulated by cell cycle progression. Phases: Sub/G1: non-proliferative state (quiescence); G1/G0: cell growth; S: DNA replication; G2/M: DNA segregation and mitosis. Results were expressed as Mean Standard Error of three independent experiments.

[7] = Body weight in xenograft study; assay type: in vivo, athymic nude mice; conditions: 20 mg/kg i.v. q3d, 3 weeks
Method: Body weight and tumor size were measured weekly twice using digital caliper. At termination, blood was collected through retro-orbital route. Serum/plasma was separated and stored at deep freezer (−20° C.). Post blood collection, animals were humanely sacrificed by CO2 asphyxiation as per latest guidelines issued by CPCSEA. All the vital organ (brain, kidney, liver, lungs, heart) and tumor were dissected out. Vital organs were fixed in 10% NBF and stored. Tumor tissue was dissected out, weighed and portion of tumor tissue was fixed in 10% NBF and another portion is snap frozen and stored at deep freezer (−80° C.).
As shown in FIG. 34A-C, tumor fragments from the U-87MG cell line were implanted in the animals and once the tumor size reached ˜100 mm^3 animals were randomized into 3 experimental groups (G1, G2, and G3). G1: Vehicle, (G2) Reference Item Temozolomide, and (G3) APT20TTMG for a total of 22 days. (A) The tumor volume of the animals was measured twice/a week. (B) Animals were weighed throughout the experiment and the change in weight gain compared to pre-treatment weight was plotted. (C) After the euthanasia of the animals, the tumors were removed and weighed.

Ki67 = Ki67 immunohistochemistry of tumor samples; assay type: in vivo, athymic nude mice; conditions: treated groups vs non-treated control
Method: Immunohistochemistry analysis of Ki67 in tumor samples was also performed. Quantification of the Ki67 in the sections was carried out by visual estimation (Ki67+ve) using two approaches: count of Ki-67 positive tumor cells and Ki67 total area. This process was done using ImageJ public domain software. In the case of the Ki67 total area evaluation, the ImageJ threshold function was used and each image was split into its constituent red, blue and green grayscale images. Further, one of these was selected and processed for threshold values. Values were selected so that the relevant areas (Ki67+ve cells, in this case) were highlighted and the % of area occupied by the selected threshold limits measured.
As shown in FIG. 35A-B, graphs present the individual values of protein quantification of tumors from 8 animals. (A) Ki-67 area, (B) Ki-67 positive tumor cells count.

[8] = system: Human Glioblastoma Cancer (U-87MG) xenograft; assay: Histopathology of tumor samples with scoring; assay type: in vivo, athymic nude mice; design: key: 1: Few; 2: Moderate; 3: Large; conditions: individual animals; G3 APT20TTMG, G2 TMZ
From the text: The fixed tissues were processed for routine paraffin embedding followed by sectioning (3-6 micron). The sections were stained with hematoxylin and eosin. The prepared slides were examined under microscope by the study pathologist to record histopathological findings in tumor samples, related to capsule formation, cell type, connective tissue stroma, apoptosis, necrosis, lipid content, nucleus-to-cytoplasmic (N:C) ratio, nuclei mitotic figures, tumor grade, and level of differentiation. Each histopathological finding and tumor volume were assigned a score ranging from 1 to 4 (Table 7). The sum of these scores for each sample was used to infer the tumor aggressiveness.

In the case of “APT20TTMG: engineered polynucleotide ASMO1, 24 nt, SEQ ID NO: 3 gtccactaacctttcaggccagcg; targeting moieties 5′-GTCCA-3′ and 5′-CG-3′, U1 snRNP recruiting moiety (GTCCACTAACCTTTCAGGCCAGCG; sugars from the 5' end m5 d14 m5, all phosphorothioate, methylation of C and T or U not given here)”, the “cell viability (MTT)” value (MCF-7 cell line [1]; 0.5 μM) is reported as 86.4±1.6%, the “cell viability (MTT)” value (MCF-7 cell line [1]; 1 μM) is reported as 85±2.7% and the “cells in S phase of cell cycle” value (MCF-7 cell line [2]) is reported as “lower concentration of cells”. The internalization [3] was “around 50%”, the cell cycle phases (SH-SY5Y cell line [4]) was “no change in cell cycle phases” and the necrotic cells (SH-SY5Y cell line [5]) was “increase in necrotic cells”. The “number of viable cells” value [6] was “remains practically the same”, the “cells in G1/G0 phase” value (U87-MG cell line; p=0.0036) was “reduction in retention” and the “cells in G2/M phase” value (U87-MG cell line; p=0.0425) was “increase in retention”. For the same substance, the “body weight of animals” value [7] was “gain weight throughout the experiment”, the “Ki67 (positive tumor cell count and total area)” value (Ki67) was “did not detect any statistical differences” and the “Score: Mitotic figures” value [8] was 1 (4×) and 3.
